Experimental data: ChEMBL document CHEMBL5365492 (J Med Chem, 2023)
Square brackets hold non-standard residues; d marks the D form. Peptide text beside a SMILES is read from it. NMeL = CN[C@@H](CC(C)C)C(=O)O; NMeV = CN[C@H](C(=O)O)C(C)C; Nva = CCC[C@H](N)C(=O)O; Sar = CNCC(=O)O

Key:
[1] = 1,9-decadiene-water partition coefficient, logD of compound at pH 7.4 at 10 uM incubated for 30 mins by LC-MS analysis; format: physicochemical
[2] = Permeability of compound at 10 uM incubated for 18 hrs by PAMPA assay; format: ADME; conditions: read-out: permeability
[3] = Permeability in human Caco-2 cells at 10 uM incubated for 2 hrs by LC-MS analysis; format: ADME, cell-based; conditions: read-out: permeability

Row | logD hydrocarbon water at 0.5 h, 10 µM [1] | Papp at 18 h, 10 µM [2] | Papp at 2 h, 10 µM [3] | SMILES
1 | 5.17 |  |  | C/C=C/C[C@@H](C)[C@@H](OC(C)=O)[C@H]1C(=O)N[C@@H](CC)C(=O)N(C)CC(=O)N(C)[C@@H](CC(C)C)C(=O)N[C@@H](C(C)C)C(=O)N(C)[C@@H](CC(C)C)C(=O)N[C@@H](C)C(=O)N[C@H](C)C(=O)N(C)[C@@H](CC(C)C)C(=O)N(C)[C@@H](CC(C)C)C(=O)N(C)[C@@H](C(C)C)C(=O)N1C
2 | 3.58 | 2 ×10⁻⁶ cm/s | 6.4 ×10⁻⁶ cm/s | CCC[C@@H]1NC(=O)[C@H](CC)N(C)C(=O)[C@H](C(C)C)N(C)C(=O)[C@H](CC(C)C)N(C)C(=O)[C@H](CC(C)C)N(C)C(=O)[C@@H](C)NC(=O)[C@H](C)NC(=O)[C@H](CC(C)C)N(C)C(=O)[C@H](C(C)C)NC(=O)[C@H](CC(C)C)N(C)C(=O)CN(C)C1=O
3 | 3.12 | 0.8 ×10⁻⁶ cm/s | 8.7 ×10⁻⁶ cm/s | CCC[C@@H]1NC(=O)[C@H]([C@@H](C)O)N(C)C(=O)[C@H](C(C)C)NC(=O)[C@H](CC(C)C)N(C)C(=O)[C@H](CC(C)C)N(C)C(=O)[C@@H](C)NC(=O)[C@H](C)NC(=O)[C@H](CC(C)C)N(C)C(=O)[C@H](C(C)C)NC(=O)[C@H](CC(C)C)N(C)C(=O)CN(C)C1=O
4 | 2.52 | 7.7 ×10⁻⁶ cm/s | 2.6 ×10⁻⁶ cm/s | CCC[C@@H]1NC(=O)[C@H]([C@@H](C)O)N(C)C(=O)[C@H](CC(C)C)NC(=O)[C@H](CC(C)C)N(C)C(=O)[C@H](CC(C)C)N(C)C(=O)[C@@H](C)NC(=O)[C@H](C)NC(=O)[C@H](CC(C)C)N(C)C(=O)[C@H](C(C)C)NC(=O)[C@H](CC(C)C)N(C)C(=O)CN(C)C1=O
5 | 1.45 | 0.3 ×10⁻⁶ cm/s | 0.3 ×10⁻⁶ cm/s | CCC[C@@H]1NC(=O)[C@H]([C@@H](C)O)N(C)C(=O)[C@H](C)NC(=O)[C@H](CC(C)C)N(C)C(=O)[C@H](CC(C)C)N(C)C(=O)[C@@H](C)NC(=O)[C@H](C)NC(=O)[C@H](CC(C)C)N(C)C(=O)[C@H](C(C)C)NC(=O)[C@H](CC(C)C)N(C)C(=O)CN(C)C1=O
6 | -2.44 |  | 0.35 ×10⁻⁶ cm/s | CCC[C@@H]1NC(=O)[C@H]([C@@H](C)O)N(C)C(=O)[C@H](C(C)C)N(C)C(=O)CN(CC[N+](CC)(CC)CC)C(=O)[C@H](CC(C)C)N(C)C(=O)[C@@H](C)NC(=O)[C@H](C)NC(=O)[C@H](CC(C)C)N(C)C(=O)[C@H](C(C)C)NC(=O)[C@H](CC(C)C)N(C)C(=O)CN(C)C1=O.O=C([O-])C(F)(F)F
7 | 3.35 | 9.2 ×10⁻⁶ cm/s | 18.6 ×10⁻⁶ cm/s | CCC[C@@H]1NC(=O)[C@H]([C@H](O)C(C)C)N(C)C(=O)[C@H](C(C)C)N(C)C(=O)[C@H](CC(C)C)N(C)C(=O)[C@H](CC(C)C)N(C)C(=O)[C@@H](C)NC(=O)[C@H](C)NC(=O)[C@H](CC(C)C)N(C)C(=O)[C@H](C(C)C)NC(=O)[C@H](CC(C)C)N(C)C(=O)CN(C)C1=O
8 | 0.13 |  | 0.07 ×10⁻⁶ cm/s | CCC[C@@H]1NC(=O)[C@H]([C@@H](C)O)N(C)C(=O)[C@H](C(C)C)N(C)C(=O)CN(CCN(C(C)C)C(C)C)C(=O)[C@H](CC(C)C)N(C)C(=O)[C@@H](C)NC(=O)[C@H](C)NC(=O)[C@H](CC(C)C)N(C)C(=O)[C@H](C(C)C)NC(=O)[C@H](CC(C)C)N(C)C(=O)CN(C)C1=O.O=C(O)C(F)(F)F
9 | 2.59 | 5.2 ×10⁻⁶ cm/s | 3 ×10⁻⁶ cm/s | CCCC[C@@H]1NC(=O)[C@H](CC(C)C)N(C)C(=O)[C@H](CC(C)C)N(C)C(=O)[C@@H](C)NC(=O)[C@H](C)NC(=O)[C@H](CC(C)C)N(C)C(=O)[C@H](C(C)C)NC(=O)[C@H](CC(C)C)N(C)C(=O)CN(C)C(=O)[C@H](CCC)NC(=O)[C@H]([C@@H](C)O)N(C)C1=O
10 | 2.58 | 7.5 ×10⁻⁶ cm/s | 2.2 ×10⁻⁶ cm/s | CCC[C@@H]1NC(=O)[C@H]([C@@H](C)O)N(C)C(=O)[C@H]([C@@H](C)CC)NC(=O)[C@H](CC(C)C)N(C)C(=O)[C@H](CC(C)C)N(C)C(=O)[C@@H](C)NC(=O)[C@H](C)NC(=O)[C@H](CC(C)C)N(C)C(=O)[C@H](C(C)C)NC(=O)[C@H](CC(C)C)N(C)C(=O)CN(C)C1=O
11 | 2.12 | 6.6 ×10⁻⁶ cm/s | 3 ×10⁻⁶ cm/s | CCC[C@@H]1NC(=O)[C@H]([C@@H](C)O)N(C)C(=O)[C@H](C(C)C)N(C)C(=O)[C@H](CC(C)C)N(C)C(=O)[C@H](CC(C)C)N(C)C(=O)[C@@H](C)NC(=O)[C@H](C)NC(=O)[C@H](CC(C)C)N(C)C(=O)[C@H](C(C)C)NC(=O)[C@H](CC(C)C)N(C)C(=O)CN(C)C1=O
12 | 4.6 |  | 6.8 ×10⁻⁶ cm/s | CCC[C@@H]1NC(=O)[C@H]([C@H](O)C(C)C)N(C)C(=O)[C@H](C(C)C)NC(=O)[C@H](CC(C)C)N(C)C(=O)[C@H](CC(C)C)N(C)C(=O)[C@@H](C)NC(=O)[C@H](C)NC(=O)[C@H](CC(C)C)N(C)C(=O)[C@H](C(C)C)NC(=O)[C@H](CC(C)C)N(C)C(=O)CN(C)C1=O
13 | 4.93 | 0.6 ×10⁻⁶ cm/s | 4.1 ×10⁻⁶ cm/s | CCC[C@@H]1NC(=O)[C@H](CC(C)C)N(C)C(=O)[C@H](C(C)C)N(C)C(=O)[C@H](CC(C)C)N(C)C(=O)[C@H](CC(C)C)N(C)C(=O)[C@@H](C)NC(=O)[C@H](C)NC(=O)[C@H](CC(C)C)N(C)C(=O)[C@H](C(C)C)NC(=O)[C@H](CC(C)C)N(C)C(=O)CN(C)C1=O (cyclo(A[dA][NMeL][NMeL][NMeV][NMeL][Nva][Sar][NMeL]V[NMeL]))
14 | 0.13 | 9.5 ×10⁻⁶ cm/s |  | NC(=O)N1c2ccccc2C=Cc2ccccc21 [CARBAMAZEPINE]
15 |  |  | 32 ×10⁻⁶ cm/s | CC(C)NCC(O)COc1cccc2ccccc12 (configuration not stated) [PROPRANOLOL]
